This assay deals with T1, human iGluR4 (Homo sapiens, UniProt P48058).
T1 construct: expressed in transfected cells; host or cells: HEK293
The assay is described as follows: Whole-cell voltage clamp electrophysiology of AMPA receptor potentiation in HEK293 cells stably expressing human iGluR4. It counts as cell-based. The following applies: voltage-clamped at −60 mV, 1 mM glutamate, fit to the Hill equation, read-out: activity (EC50, potentiation of current evoked by 1 mM glutamate). The text has this:
HEK293 cells stably expressing human iGluR4 (obtained as described in European Patent Application Publication No. EP-A1-0583917) are used in the electrophysiological characterization of AMPA receptor potentiators. The extracellular recording solution contains (in mM): 140 NaCl, 5 KCl, 10 HEPES, 1 MgCl2, 2 CaCl2, 10 glucose, pH=7.4 with NaOH, 295 mOsm kg-1. The intracellular recording solution contains (in mM): 140 CsCl, 1 MgCl2, 10 HEPES, (N-[2-hydroxyethyl]piperazine-N1-[2-ethanesulfonic acid]) 10 EGTA (ethylene-bis(oxyethylene-nitrilo)tetraacetic acid), pH=7.2 with CsOH, 295 mOsm kg-1. With these solutions, recording pipettes have a resistance of 2-3 MΩ. […] Responses to 1 mM glutamate are then determined in the presence of test compound. […]
In order to determine the potency of test compounds, the concentration of the test compound, both in the bathing solution and co-applied with glutamate, is increased in half log units until the maximum effect was seen. […] Reversibility of test compound activity is determined by assessing control glutamate 1 mM responses. Once the control responses to the glutamate challenge are re-established, the potentiation of these responses by 100 μM cyclothiazide is determined by its inclusion in both the bathing solution and the glutamate-containing solution. In this manner, the efficacy of the test compound relative to that of cyclothiazide can be determined. […]

T1 sequence (P48058 21-902): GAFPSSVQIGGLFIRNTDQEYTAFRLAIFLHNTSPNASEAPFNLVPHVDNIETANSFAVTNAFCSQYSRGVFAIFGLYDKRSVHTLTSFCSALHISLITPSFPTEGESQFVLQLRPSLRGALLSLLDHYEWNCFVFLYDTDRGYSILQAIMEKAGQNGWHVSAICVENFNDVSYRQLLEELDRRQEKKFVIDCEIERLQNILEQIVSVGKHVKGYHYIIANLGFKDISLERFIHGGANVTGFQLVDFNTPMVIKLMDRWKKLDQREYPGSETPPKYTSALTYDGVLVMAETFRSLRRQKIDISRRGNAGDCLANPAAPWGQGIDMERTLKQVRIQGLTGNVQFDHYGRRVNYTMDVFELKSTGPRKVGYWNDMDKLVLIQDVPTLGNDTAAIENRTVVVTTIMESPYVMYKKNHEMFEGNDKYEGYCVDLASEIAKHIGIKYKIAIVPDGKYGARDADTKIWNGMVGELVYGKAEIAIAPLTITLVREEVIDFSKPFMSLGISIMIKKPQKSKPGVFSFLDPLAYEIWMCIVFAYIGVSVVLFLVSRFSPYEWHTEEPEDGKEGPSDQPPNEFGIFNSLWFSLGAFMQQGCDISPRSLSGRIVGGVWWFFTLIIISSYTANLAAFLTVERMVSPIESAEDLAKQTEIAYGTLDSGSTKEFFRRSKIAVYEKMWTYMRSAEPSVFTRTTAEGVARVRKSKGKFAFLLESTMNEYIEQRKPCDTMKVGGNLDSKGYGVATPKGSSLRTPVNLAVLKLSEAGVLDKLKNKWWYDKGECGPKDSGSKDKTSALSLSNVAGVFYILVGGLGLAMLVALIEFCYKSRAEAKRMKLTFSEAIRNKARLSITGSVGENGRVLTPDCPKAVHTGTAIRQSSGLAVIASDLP

What is called EC50 is the concentration that produces a half-maximal response. In the case of `CCOc1cc(C(=O)O)ccc1-c1ccc(-c2sccc2NS(=O)(=O)C(C)C)cc1` [Example 1, 2-Ethoxy-4′-[3-(propane-2-sulfonylamino)-thiophen-2-yl]-biphenyl-4-carboxylic acid], the 50% effective concentration (EC50) came to 0.145 µM.

For the origin of these results see US7652064B2, “AMPA receptor potentiators” (Eli Lilly and Company, priority 2005, dated 2010).
